Laboratory results reported in PMC11018852, “Scutellarin activates IDH1 to exert antitumor effects in hepatocellular carcinoma progression” (Cell Death & Disease, 2024).

Biological target: T1, IDH1 (Homo sapiens, UniProt O75874)
T1 construct: residues 1–414
Experiment: biolayer interferometry on recombinant IDH1 (repeat Kd […]); supported by DSF, CETSA, LC-MS/MS adduct at Cys297, enzyme activation EC50 […]
Type: binding

T1 sequence (O75874 whole entry, the tested form may be a part): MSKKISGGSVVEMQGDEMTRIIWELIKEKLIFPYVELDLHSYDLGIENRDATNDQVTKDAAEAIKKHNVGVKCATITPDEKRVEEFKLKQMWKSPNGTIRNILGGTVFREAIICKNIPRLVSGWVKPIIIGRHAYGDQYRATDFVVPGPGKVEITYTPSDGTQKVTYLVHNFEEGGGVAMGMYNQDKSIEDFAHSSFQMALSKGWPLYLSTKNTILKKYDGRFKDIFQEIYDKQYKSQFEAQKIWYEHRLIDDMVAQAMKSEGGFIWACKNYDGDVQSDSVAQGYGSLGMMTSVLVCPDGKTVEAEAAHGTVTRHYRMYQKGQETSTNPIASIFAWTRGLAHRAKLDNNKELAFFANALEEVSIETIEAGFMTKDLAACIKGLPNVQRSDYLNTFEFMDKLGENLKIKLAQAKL

Compound: O=C(O)[C@H]1O[C@@H](Oc2cc3oc(-c4ccc(O)cc4)cc(=O)c3c(O)c2O)[C@H](O)[C@@H](O)[C@@H]1O [Scu, scutellarin]
- Kd: 11.5 µM
